“Also recorded” adds a separate entry of the source. Read-outs that look alike come from different tables or passages of the source.
Columns and labels:
[1] = test system: Ch1.Es esophageal fibroblasts; test: Protein isoprenylation in Ch1.Es fibroblasts (immunoblot with anti-hDNAJ and anti-Rap1A markers); type: cell-based
Description: (§1) Cells were treated for 24 hours and protein lysates were analyzed for suppression of protein isoprenylation. Markers included either anti-hDNAJ, a farnesylated protein that migrates more slowly when farnesylation is absent (two bands observed) or anti-Rap1A, which we have shown previously to bind preferentially to Rap1A if isoprenylation is blocked (presence of a band indicates absence of protein geranylgeranylation) (See Reszka, A. A., Halasy-Nagy, J. and Rodan, G. A. Molecular Pharmacology 59:193-202, 2001).
(A) Cells pretreated for 24 hours with nothing or the squalene synthase inhibitor, zaragozic Acid A (Zara-A) at 3 μM (three lanes indicated).
as §1, with “geranylgeranylation. See FIG. 1.” for “geranylgeranylation) (See Reszka, A. A., Halasy-Nagy, J. and Rodan, G. A. Molecular Pharmacology 59:193-202, 2001).”
(A) Cells pretreated for 24 hours with nothing or the squalene synthase inhibitor, Zaragozic Acid A (Zara-A) at 3 μM (three lanes indicated).

[2] = test system: Ch1.Es esophageal fibroblasts; test: Apoptosis in Ch1.Es cells (cell rounding and detachment from the dish); type: cell-based; conditions: for suppression of ALN-induced apoptosis in absence of lipoprotein / suppression of RIS-induced apoptosis in absence of lipoprotein: FIG. 3: LPDS, Zara-A 10 μM; for suppression of ALN-induced apoptosis in absence of lipoprotein: ALN 300 μM 24 hours; for suppression of RIS-induced apoptosis in absence of lipoprotein: RIS 300 μM 24 hours; for induction of apoptosis: bisphosphonate 300 μM, 24 hours
Description: Apoptosis is observed as cell rounding and detachment from the dish.
Ch1.Es cells were grown for 24 hours in either fetal bovine serum (FBS) (top panels) or lipoprotein-deficient […] (LPDS) in the absence (middle) or presence (bottom) of Zara-A (10 μM). […] (300 μM). Phenotypes were scored as in FIG. 2. The suppression of apoptosis is near complete after inclusion of Zara-A.

[3] = test system: skin; test: Skin irritation after subcutaneous injection, histology (hematoxylin and eosin, affected area); type: in vivo, Rats; conditions: 5 days
Description: Skin was harvested after necropsy, fixed with formalin, thin-sectioned and stained with hematoxylin and eosin. Area was determined by measuring the thickness and length of each affected area and is represented vs. the H2O control.

[4] = test system: skin; conditions: subcutaneous, 5 days; for effect of coadministered Zara-A on ALN-induced skin irritation / thickening: ALN 0.5 mg/kg with Zara-A 3 μg/kg; for effect of coadministered Zara-A on ALN-induced skin irritation / thickening / effect of coadministered Zara-A on RIS-induced skin irritation / thickening: P≦0.01; for effect of coadministered Zara-A on RIS-induced skin irritation / thickening: RIS 0.5 mg/kg with Zara-A 3 μg/kg
[5] = test system: Ch1.Es esophageal fibroblasts; test: Activation of pro-apoptotic kinases (in-gel kinase assay, phospho-specific immunoblotting); type: cell-based; conditions: 300 μM, 24 hours
Description: Cell lysates were analyzed using an in-gel kinase assay (top) or by immuno-blotting with anti-phospho-specific antibodies recognizing active MAP kinases (Erk1 and 2), p38, or Jun N-terminal kinase (Jnk).

[6] = Zara-A 0.1-10 μM pretreated 24 hours, then ALN 300 μM 24 hours
[7] = listed as squalene synthase inhibitor
[8] = ALN 300 μM, 24 hours, absence of Zara-A

With `C=C(CC[C@]12O[C@H](C(=O)O)[C@@](O)(C(=O)O)[C@](C(=O)O)(O1)[C@H](OC(=O)/C=C/[C@@H](C)C[C@@H](C)CC)[C@H]2O)[C@@H](OC(C)=O)[C@H](C)Cc1ccccc1` [Zara-A, zaragozic Acid A] as the compound, how does the “effect of Zara-A pretreatment on ALN inhibition of Rap1A geranylgeranylation” value ([1]; Zara-A 3 μM pretreated 24 hours, then ALN 300 μM 24 hours) read?
The value was “reduced; also recorded: diminished”.

And the “effect of Zara-A on capacity of ALN to inhibit Rap1A geranylgeranylation” value [1, 6]?
The value was “dose-dependently reduces; also recorded: dose-dependently diminished”.

And the “effect of Zara-A on capacity of ALN to inhibit hDNAJ farnesylation” value [1, 6]?
The value was “dose-dependently reduces; also recorded: dose-dependently diminished”.

And the “suppression of ALN-induced apoptosis” value ([2]; FIG. 2: Zara-A 24 hours, then ALN 300 μM 24 hours)?
Its value is “suppression”.

And the “suppression of ALN-induced apoptosis in absence of lipoprotein” value [2]?
The value was “near complete”.

And the “suppression of ALN-induced apoptosis in absence of lipoprotein” value [2, 7]?
The value was “maximally suppresses”.

And the “suppression of RIS-induced apoptosis in absence of lipoprotein” value [2]?
Its value is “near complete”.

What about the “suppression of RIS-induced apoptosis in absence of lipoprotein” value [2, 7] of the same compound?
The value was “maximally suppresses”.

And the “suppression of ALN-induced skin irritation” value ([3]; FIG. 6: ALN 0.5 mg/kg with Zara-A 3 μg/kg)?
Its value is “suppresses”.

What about the “effect of coadministered Zara-A on ALN-induced skin irritation / thickening” value [4] of the same compound?
Its value is “significantly reduced”.

What about the “effect of coadministered Zara-A on ALN-induced skin irritation / thickening” value [4, 7] of the same compound?
Its value is “suppresses”.

And the “effect of coadministered Zara-A on RIS-induced skin irritation / thickening” value [4]?
Its value is “significantly reduced”.

And the “effect of coadministered Zara-A on RIS-induced skin irritation / thickening” value [4, 7]?
Its value is “suppresses”.

Which induction of apoptosis [2] does the source give for `O=P(O)(O)C(O)(Cc1cccnc1)P(=O)(O)O` [RIS, 1-hydroxy-2-(3-pyridinyl)-ethylidene-1,1-bisphosphonic acid] here?
Its induction of apoptosis is “induced”.

And the “activation of pro-apoptotic kinases” value [5]?
Its value is “activate”.

And the skin irritation ([3]; 0.5 mg/kg)?
Its skin irritation is “Skin irritation induced”.

And the “volume of affected skin area” value ([4]; 0.5 mg/kg, vehicle control 50-100)?
The value was 240 mm^3.

Which “inhibition of Rap1A geranylgeranylation” value [1, 8] does the source give for `NCCCC(O)(P(=O)(O)O)P(=O)(O)O` [ALN, 4-amino-1-hydroxybutylidene-1,1-bisphosphonic acid monosodium trihydrate] here?
Its value is “strongly inhibits”.

And the “inhibition of hDNAJ farnesylation” value [1, 8]?
The value was “strongly inhibits”.

And the induction of apoptosis [2]?
The induction of apoptosis was “induced”.

What about the “activation of pro-apoptotic kinases” value [5] of the same compound?
The value was “activate”.

Reference: patent publication US20040180862A1, “Compositions and methods for inhibiting bone resorption” (priority 2001, published 2004)
